PubChem BioAssay AID1259407 (Chemical Carcinogenesis Research Information System (CCRIS), 2018)
Activity calls are given as the source filed them. No rule for the calls is given here.

System: CCRIS mutagenicity, Ames/micronucleus/aberration tests
Assay: CCRIS mutagenicity studies
[1] = Test System: AMES SALMONELLA TYPHIMURIUM, Strain/Indicator: TA98, Metabolic Activation: NONE, Method: STANDARD PLATE
[2] = Test System: AMES SALMONELLA TYPHIMURIUM, Strain/Indicator: TA100, Metabolic Activation: NONE, Method: STANDARD PLATE
[3] = Test System: AMES SALMONELLA TYPHIMURIUM, Strain/Indicator: TA100, Metabolic Activation: NONE, Method: PREINCUBATION
[4] = Test System: AMES SALMONELLA TYPHIMURIUM, Strain/Indicator: TA98, Metabolic Activation: NONE, Method: PREINCUBATION
[5] = Test System: AMES SALMONELLA TYPHIMURIUM, Strain/Indicator: TA98, Metabolic Activation: RAT LIVER S-9, PHENOBARBITAL AND BETA-NAPHTHOFLAVONE, Method: PREINCUBATION
[6] = Test System: AMES SALMONELLA TYPHIMURIUM, Strain/Indicator: TA100, Metabolic Activation: RAT LIVER S-9, PHENOBARBITAL AND BETA-NAPHTHOFLAVONE, Method: PREINCUBATION
[7] = Test System: AMES SALMONELLA TYPHIMURIUM, Strain/Indicator: TA1535, Metabolic Activation: RAT LIVER S-9, PHENOBARBITAL AND BETA-NAPHTHOFLAVONE, Method: PREINCUBATION
[8] = Test System: AMES SALMONELLA TYPHIMURIUM, Strain/Indicator: TA1537, Metabolic Activation: NONE, Method: PREINCUBATION
[9] = Test System: AMES SALMONELLA TYPHIMURIUM, Strain/Indicator: TA1537, Metabolic Activation: RAT LIVER S-9, PHENOBARBITAL AND BETA-NAPHTHOFLAVONE, Method: PREINCUBATION
[10] = Test System: AMES SALMONELLA TYPHIMURIUM, Strain/Indicator: TA1538, Metabolic Activation: NONE, Method: PREINCUBATION
[11] = Test System: AMES SALMONELLA TYPHIMURIUM, Strain/Indicator: TA1538, Metabolic Activation: RAT LIVER S-9, PHENOBARBITAL AND BETA-NAPHTHOFLAVONE, Method: PREINCUBATION
[12] = Test System: E.COLI, Strain/Indicator: WP2UVRA, Metabolic Activation: NONE, Method: PREINCUBATION
[13] = Test System: E.COLI, Strain/Indicator: WP2UVRA, Metabolic Activation: RAT LIVER S-9, PHENOBARBITAL AND BETA-NAPHTHOFLAVONE, Method: PREINCUBATION

How did the mutagenic call (Test System: AMES SALMONELLA TYPHIMURIUM, Strain/Indicator: TA97A, Metabolic Activation: NONE, Method: STANDARD PLATE) turn out when `CCc1ccc(C)cc1` was run?
The mutagenic call was “inactive; negative”.

What about the mutagenic call (Test System: AMES SALMONELLA TYPHIMURIUM, Strain/Indicator: TA97A, Metabolic Activation: RAT LIVER S-9, AROCLOR 1254, Method: STANDARD PLATE) of the same compound?
The mutagenic call was “inactive; negative”.

And the mutagenic call [1]?
The mutagenic call was “inactive; negative”.

And the mutagenic call (Test System: AMES SALMONELLA TYPHIMURIUM, Strain/Indicator: TA98, Metabolic Activation: RAT LIVER S-9, AROCLOR 1254, Method: STANDARD PLATE)?
Its mutagenic call is “inactive; negative”.

What about the mutagenic call [2] of the same compound?
Its mutagenic call is “inactive; negative”.

What about the mutagenic call (Test System: AMES SALMONELLA TYPHIMURIUM, Strain/Indicator: TA100, Metabolic Activation: RAT LIVER S-9, AROCLOR 1254, Method: STANDARD PLATE) of the same compound?
The mutagenic call was “inactive; negative”.

And the mutagenic call (Test System: AMES SALMONELLA TYPHIMURIUM, Strain/Indicator: TA102, Metabolic Activation: NONE, Method: STANDARD PLATE)?
The mutagenic call was “inactive; negative”.

And the mutagenic call (Test System: AMES SALMONELLA TYPHIMURIUM, Strain/Indicator: TA102, Metabolic Activation: RAT LIVER S-9, AROCLOR 1254, Method: STANDARD PLATE)?
The mutagenic call was “inactive; negative”.

Which mutagenic call [2] does the source give for `Cc1ccc2cc(C)c3c4c(ccc3c2c1)[C@H](O)[C@@H](O)[C@H]1O[C@@H]41` here?
The mutagenic call was “active; positive”.

How did the mutagenic call [3] turn out when `CCc1cc2ccccc2c2ccc3c(c12)[C@@H]1O[C@@H]1[C@H](O)[C@H]3O` was run?
The mutagenic call was “active; positive”.

Which mutagenic call [4] does the source give for `Cc1cc2ccccc2cc1[N+](=O)[O-]` here?
The mutagenic call was “inactive; negative”.

`CC(C)C(=O)N(O)c1ccc(Cl)cc1` was tested. Which mutagenic call [1] did it give?
The mutagenic call was “inactive; negative”.

What about the mutagenic call (Test System: AMES SALMONELLA TYPHIMURIUM, Strain/Indicator: TA98, Metabolic Activation: RAT, LIVER, S-9, AROCLOR 1254, Method: STANDARD PLATE) of the same compound?
The mutagenic call was “active; positive”.

What about the mutagenic call [2] of the same compound?
The mutagenic call was “inactive; negative”.

And the mutagenic call (Test System: AMES SALMONELLA TYPHIMURIUM, Strain/Indicator: TA100, Metabolic Activation: RAT, LIVER, S-9, AROCLOR 1254, Method: STANDARD PLATE)?
The mutagenic call was “inactive; negative”.

Which mutagenic call (Test System: AMES SALMONELLA TYPHIMURIUM, Strain/Indicator: TA98, Metabolic Activation: RAT, LIVER, S-9, PHENOBARBITAL, Method: STANDARD PLATE) does the source give for `COc1cc2c(c3oc4cccc(O)c4c(=O)c13)[C@@H]1CCO[C@@H]1O2` here?
Its mutagenic call is “inactive; negative”.

And the mutagenic call (Test System: AMES SALMONELLA TYPHIMURIUM, Strain/Indicator: TA100, Metabolic Activation: RAT, LIVER, S-9, PHENOBARBITAL, Method: STANDARD PLATE)?
The mutagenic call was “inactive; negative”.

What does the source list for `Nc1ccc(-c2cc(Cl)c(N)c(Cl)c2)cc1Cl`?
mutagenic call (Test System: AMES SALMONELLA TYPHIMURIUM, Strain/Indicator: TA98/1,8-DNP6, Metabolic Activation: HAMSTER, LIVER, S-9, Method: PREINCUBATION): active; positive; mutagenic call (Test System: AMES SALMONELLA TYPHIMURIUM, Strain/Indicator: TA98, Metabolic Activation: HAMSTER, LIVER, S-9, Method: PREINCUBATION): active; positive; mutagenic call [4]: active; positive; mutagenic call (Test System: AMES SALMONELLA TYPHIMURIUM, Strain/Indicator: TA100, Metabolic Activation: HAMSTER, LIVER, S-9, Method: PREINCUBATION): active; positive

Which results are given for `CC(=O)Nc1ccc(Nc2ccc([N+](=O)[O-])cc2)cc1`?
mutagenic call (Test System: AMES SALMONELLA TYPHIMURIUM, Strain/Indicator: TA98(NR), Metabolic Activation: NONE, Method: PREINCUBATION): inactive; negative; mutagenic call [4]: active; positive; mutagenic call (Test System: AMES SALMONELLA TYPHIMURIUM, Strain/Indicator: TA98, Metabolic Activation: RAT, LIVER, S-9, AROCLOR 1254, Method: PREINCUBATION): active; positive

`CCCOC(=O)C=Cc1ccc([N+](=O)[O-])o1` was tested. Which mutagenic call [4] did it give?
Its mutagenic call is “active; positive”.

For `CCOC(=O)CC(C)=O`, which mutagenic call (Test System: AMES SALMONELLA TYPHIMURIUM, Strain/Indicator: TA97, Metabolic Activation: NONE, Method: PREINCUBATION) is on record?
The mutagenic call was “inactive; negative”.

And the mutagenic call (Test System: AMES SALMONELLA TYPHIMURIUM, Strain/Indicator: TA97, Metabolic Activation: RAT, LIVER, S-9, AROCLOR 1254, Method: PREINCUBATION)?
Its mutagenic call is “inactive; negative”.

What about the mutagenic call [4] of the same compound?
Its mutagenic call is “inactive; negative”.

What about the mutagenic call [5] of the same compound?
The mutagenic call was “inactive; negative”.

And the mutagenic call [3]?
The mutagenic call was “inactive; negative”.

What about the mutagenic call [6] of the same compound?
Its mutagenic call is “inactive; negative”.

And the mutagenic call (Test System: AMES SALMONELLA TYPHIMURIUM, Strain/Indicator: TA102, Metabolic Activation: NONE, Method: PREINCUBATION)?
The mutagenic call was “inactive; negative”.

What about the mutagenic call (Test System: AMES SALMONELLA TYPHIMURIUM, Strain/Indicator: TA102, Metabolic Activation: RAT, LIVER, S-9, AROCLOR 1254, Method: PREINCUBATION) of the same compound?
Its mutagenic call is “inactive; negative”.

What about the mutagenic call (Test System: AMES SALMONELLA TYPHIMURIUM, Strain/Indicator: TA1535, Metabolic Activation: NONE, Method: PREINCUBATION) of the same compound?
Its mutagenic call is “inactive; negative”.

And the mutagenic call [7]?
Its mutagenic call is “inactive; negative”.

What about the mutagenic call [8] of the same compound?
The mutagenic call was “inactive; negative”.

And the mutagenic call [9]?
Its mutagenic call is “inactive; negative”.

What about the mutagenic call [10] of the same compound?
Its mutagenic call is “inactive; negative”.

And the mutagenic call [11]?
The mutagenic call was “inactive; negative”.

What about the mutagenic call [12] of the same compound?
Its mutagenic call is “inactive; negative”.

What about the mutagenic call [13] of the same compound?
Its mutagenic call is “inactive; negative”.

What does the source list for `CCCS`?
mutagenic call (Test System: MOUSE LYMPHOMA, Strain/Indicator: L5178Y (TK+/TK-), Metabolic Activation: RAT, LIVER, S-9, AROCLOR 1254, Method: SUSPENSION/PLATE): active; positive. reevaluation of results: equivocal; mutagenic call (Test System: Mouse lymphoma, Strain/Indicator: L5178Y (tk+/tk-), Metabolic Activation: None, Method: Suspension/plate): inactive; negative

With `Nc1ccc(-c2cc([N+](=O)[O-])c(N)c(Cl)c2Cl)cc1` as the compound, how does the mutagenic call (Test System: Ames Salmonella typhimurium, Strain/Indicator: TA98, Metabolic Activation: None, Method: Preincubation) read?
The mutagenic call was “active; positive. weak response”.

What about the mutagenic call (Test System: Ames Salmonella typhimurium, Strain/Indicator: TA98, Metabolic Activation: Rat, Liver, S-9, Phenobarbital and 5,6-benzoflavone, Method: Preincubation) of the same compound?
The mutagenic call was “active; positive”.

And the mutagenic call (Test System: Ames Salmonella typhimurium, Strain/Indicator: TA100, Metabolic Activation: None, Method: Preincubation)?
The mutagenic call was “inactive; negative”.

What about the mutagenic call (Test System: Ames Salmonella typhimurium, Strain/Indicator: TA100, Metabolic Activation: Rat, Liver, S-9, Phenobarbital and 5,6-benzoflavone, Method: Preincubation) of the same compound?
Its mutagenic call is “active; positive”.

And the mutagenic call (Test System: Ames Salmonella typhimurium, Strain/Indicator: YG1024, Metabolic Activation: None, Method: Preincubation)?
The mutagenic call was “active; positive”.

What about the mutagenic call (Test System: Ames Salmonella typhimurium, Strain/Indicator: YG1024, Metabolic Activation: Rat, Liver, S-9, Phenobarbital and 5,6-benzoflavone, Method: Preincubation) of the same compound?
Its mutagenic call is “active; positive”.

And the mutagenic call (Test System: Ames Salmonella typhimurium, Strain/Indicator: YG1029, Metabolic Activation: None, Method: Preincubation)?
Its mutagenic call is “inactive; negative”.

And the mutagenic call (Test System: Ames Salmonella typhimurium, Strain/Indicator: YG1029, Metabolic Activation: Rat, Liver, S-9, Phenobarbital and 5,6-benzoflavone, Method: Preincubation)?
The mutagenic call was “active; positive”.

With `O.O.O.O.O.[Cd+2].[Cd+2].[Cl-].[Cl-].[Cl-].[Cl-]` as the compound, how does the mutagenic call (End Point: In vivo micronucleus, Test System: Bone marrow polychromatic erythrocytes, Species: Mouse, Strain/Sex: C57BL/6J/Han/Male, Route: Oral) read?
Its mutagenic call is “inactive; negative”.

What about the mutagenic call [4] of the same compound?
The mutagenic call was “inactive; negative”.

And the mutagenic call [5]?
Its mutagenic call is “inactive; negative”.

What about the mutagenic call [6] of the same compound?
The mutagenic call was “inactive; negative”.

And the mutagenic call [7]?
Its mutagenic call is “inactive; negative”.

And the mutagenic call [8]?
The mutagenic call was “inactive; negative”.

What about the mutagenic call [9] of the same compound?
The mutagenic call was “inactive; negative”.

And the mutagenic call [10]?
The mutagenic call was “inactive; negative”.

And the mutagenic call [11]?
The mutagenic call was “inactive; negative”.

And the mutagenic call [12]?
Its mutagenic call is “inactive; negative”.

And the mutagenic call [13]?
Its mutagenic call is “inactive; negative”.
